The data set is described as follows: collision cross section in nitrogen (drift tube, single-field); higher = larger gas-phase ion size.
Setting [1] is: ion type: [M+H], ion source: APCI, ion mode: Positive.
Where [2] appears, read: ion type: [M+H], ion source: ESI, ion mode: Positive.
Setting [3] is: ion type: [M+], ion source: APCI, ion mode: Positive.
The mark [4] stands for this setting: ion type: [M+Na], ion source: ESI, ion mode: Positive.
Where [5] appears, read: ion type: [M-H], ion source: ESI, ion mode: Negative.

Structures can show the parent of a compound that is named as a salt.

Results on 47 compounds are retold here after the supplement of paper PMC12317010.
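Also: chemical standards at 10 µM analysed by drift tube IMS-QTOF MS in about 3.95 torr nitrogen, mean of duplicate injections differing ≤1%, mass error below 10 ppm.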

Take `COc1cc(-c2ccc(N)c(OC)c2)ccc1N` [C.I. Disperse Black 6 dihydrochloride]: the “collision cross section in nitrogen” value is, setting by setting: under setting [1], 169.7 Å²; under setting [2], 169.9 Å²; under setting [3], 156.1 Å².

For the compound `COc1cc(-c2ccc(N)c(OC)c2)ccc1N` [C.I. Disperse Black 6], the “collision cross section in nitrogen” value under setting [1] was determined as 170.4 Å², the “collision cross section in nitrogen” value under setting [2] turned out to be 170 Å² and the “collision cross section in nitrogen” value under setting [3] is 156.6 Å².

On to `CNc1ccc(NCCO)c2c1C(=O)c1ccccc1C2=O` [C.I. Disperse Blue 3], for which the “collision cross section in nitrogen” value by setting is: under setting [1], 167.2 Å²; under setting [2], 167.5 Å².

In the case of `O=C1c2c(O)ccc(Nc3ccc(CCO)cc3)c2C(=O)c2c([N+](=O)[O-])ccc(O)c21` [C.I. Disperse Blue 27], the “collision cross section in nitrogen” value is on record as 189.9 Å² under setting [4] and 201.7 Å² under setting [5].

For the compound `CCN(CCC#N)c1ccc(N=Nc2ccc([N+](=O)[O-])cc2)cc1` [C.I. Disperse Orange 25], the “collision cross section in nitrogen” value is, setting by setting: under setting [1], 188.5 Å²; under setting [2], 188.8 Å²; under setting [4], 189.8 Å².

As to `CCN(CCC#N)c1ccc(N=Nc2c(Cl)cc([N+](=O)[O-])cc2Cl)cc1` [C.I. Disperse Orange 37], the “collision cross section in nitrogen” value under setting [1] was determined as 197.8 Å² and the “collision cross section in nitrogen” value under setting [2] is given as 197.9 Å².

On to `Nc1c(Oc2ccccc2)cc(O)c2c1C(=O)c1ccccc1C2=O` [C.I. Disperse Red 60], for which the “collision cross section in nitrogen” value was determined as 177.7 Å² under setting [1], 178 Å² under setting [2], 172.6 Å² under setting [3] and 175.8 Å² under setting [5].

As to `CC(=O)Nc1ccc(N=Nc2cc(C)ccc2O)cc1` [C.I. Disperse Yellow 3], the “collision cross section in nitrogen” value was found to be 167.8 Å² under setting [1], 168.2 Å² under setting [2] and 168.7 Å² under setting [5].

`O=C1c2ccccc2C(=O)C1c1nc2ccccc2c(Br)c1O` [C.I. Disperse Yellow 64]: the “collision cross section in nitrogen” value under setting [1] was 167.5 Å² and the “collision cross section in nitrogen” value under setting [5] was 171.5 Å².

As to `O=S(=O)(O)c1cc(Nc2nc(Nc3ccccc3)nc(N(CCO)CCO)n2)ccc1C=Cc1ccc(Nc2nc(Nc3ccccc3)nc(N(CCO)CCO)n2)cc1S(=O)(=O)O` [C.I. Fluorescent Brightener 28, disodium salt], the “collision cross section in nitrogen” value is listed as 307.5 Å² under setting [2] and 282.8 Å² under setting [5].

With `CC(=O)Nc1ccc(N=Nc2c(S(=O)(=O)O)cc3cc(S(=O)(=O)O)cc(NC(C)=O)c3c2O)cc1` [C.I. Food Red 11], the “collision cross section in nitrogen” value under setting [5] was 231.8 Å².

`Cc1ccc([N+](=O)[O-])cc1N=Nc1c(O)c(C(=O)Nc2ccccc2)cc2ccccc12` [C.I. Pigment Red 22]: the “collision cross section in nitrogen” value under setting [5] was found to be 207 Å².

For `Cc1cc(N=Nc2c(O)ccc3ccccc23)c(S(=O)(=O)O)cc1Cl` [C.I. Pigment Red 53], under setting [5], the “collision cross section in nitrogen” value turned out to be 187.2 Å².

Consider `Cc1ccc2[nH]c3cc4c(=O)c5cc(C)ccc5[nH]c4cc3c(=O)c2c1` [C.I. Pigment Red 122], for which the “collision cross section in nitrogen” value reads like this: under setting [1], 183.4 Å²; under setting [5], 185.7 Å².

`CC(=O)C(=NNc1ccc(-c2ccc(NN=C(C(C)=O)C(=O)Nc3ccc(C)cc3C)c(Cl)c2)cc1Cl)C(=O)Nc1ccc(C)cc1C` [C.I. Pigment Yellow 13]: the “collision cross section in nitrogen” value under setting [1] is recorded as 238.9 Å² and the “collision cross section in nitrogen” value under setting [3] is on record as 238.3 Å².

As to `Cc1ccc(N=Nc2c(O)ccc3ccccc23)c(C)c1` [C.I. Solvent Orange 7], the “collision cross section in nitrogen” value is reported as 163.6 Å² under setting [1] and 166.8 Å² under setting [2].

As for `CCN(CC)c1ccc2c(c1)Oc1cc(N(CC)CC)ccc1C21OC(=O)c2ccccc21` [C.I. Solvent Red 49], the “collision cross section in nitrogen” value reads like this: under setting [1], 217.9 Å²; under setting [2], 218.5 Å²; under setting [4], 230.2 Å².

In the case of `O=C1OC2(c3ccccc31)c1ccc(O)c(Br)c1Oc1c2ccc(O)c1Br` [C.I. Solvent Red 72], the “collision cross section in nitrogen” value runs as follows: under setting [1], 186.2 Å²; under setting [2], 185 Å²; under setting [4], 205.5 Å²; under setting [5], 190.5 Å².

Turning to `COc1ccc(OC)c(N=Nc2c(O)ccc3ccccc23)c1` [C.I. Solvent Red 80], the “collision cross section in nitrogen” value was found to be 171.6 Å² under setting [1], 171.6 Å² under setting [2] and 177.5 Å² under setting [5].

On to `O=C1OC2(c3ccccc31)c1cc(I)c(O)c(I)c1Oc1c2cc(I)c(O)c1I` [C.I. Solvent Red 140], for which the “collision cross section in nitrogen” value was 211.8 Å² under setting [1], 211.3 Å² under setting [2] and 218.2 Å² under setting [5].

Take `Nc1ccc(N=Nc2ccccc2)cc1` [C.I. Solvent Yellow 1]: the “collision cross section in nitrogen” value is recorded as 146.1 Å² under setting [1], 146.9 Å² under setting [2] and 145.4 Å² under setting [5].

Take `Oc1ccc2ccccc2c1N=Nc1ccccc1` [C.I. Solvent Yellow 14]: the “collision cross section in nitrogen” value was 156.9 Å² under setting [1] and 160.1 Å² under setting [5].

As for `CCN(CC)c1ccc(N=Nc2ccccc2)cc1` [C.I. Solvent Yellow 56], the “collision cross section in nitrogen” value reads like this: under setting [1], 165.9 Å²; under setting [2], 165.9 Å².

With `COc1ccc2sc(C(=O)Nc3nnn[nH]3)c(OC(C)C)c2c1` [CI-959], the “collision cross section in nitrogen” value stood at 190.1 Å² under setting [4] and 178.6 Å² under setting [5].

Turning to `Cc1cc2c3c(c1)C(c1ccccc1)=N[C@@H](NC(=O)c1ccncc1)C(=O)N3CC2` [CI-1018], the “collision cross section in nitrogen” value was determined as 201.9 Å² under setting [1], 200.9 Å² under setting [2], 210.1 Å² under setting [4] and 195 Å² under setting [5].

As for `Cc1cc(SC2=C(O)C[C@@](CCc3ccc(N)cc3)(C(C)C)OC2=O)c(C(C)(C)C)cc1CO` [CI-1029], the “collision cross section in nitrogen” value is, setting by setting: under setting [4], 210.5 Å²; under setting [5], 214.2 Å².

Take `Clc1ccc(-c2nc3sccn3c2/C=N/OCc2ccc(Cl)c(Cl)c2)cc1` [CITCO]: the “collision cross section in nitrogen” value reads like this: under setting [1], 200.6 Å²; under setting [2], 200.2 Å²; under setting [5], 199 Å².

Turning to `O=C1NS(=O)(=O)c2ccccc21` [Calcium saccharin hydrate], the “collision cross section in nitrogen” value under setting [5] was 130.5 Å².

For `CCOc1nc2cccc(C(=O)OC(C)OC(=O)OC3CCCCC3)c2n1Cc1ccc(-c2ccccc2-c2nnn[nH]2)cc1` (stereo not drawn) [Candesartan cilexetil], the “collision cross section in nitrogen” value was 241.9 Å² under setting [1], 242.2 Å² under setting [2], 252.1 Å² under setting [4] and 244 Å² under setting [5].

For the compound `COCCOC[C@H](CC1(C(=O)N[C@H]2CC[C@@H](C(=O)O)CC2)CCCC1)C(=O)Oc1ccc2c(c1)CCC2` [Candoxatril], the “collision cross section in nitrogen” value was 224.2 Å² under setting [1], 224.4 Å² under setting [2], 222.5 Å² under setting [4] and 226.4 Å² under setting [5].

Regarding `COc1cc(CNC(=O)CCCC/C=C/C(C)C)ccc1O` [Capsaicin], the “collision cross section in nitrogen” value under setting [2] was 182 Å², the “collision cross section in nitrogen” value under setting [4] was 173 Å² and the “collision cross section in nitrogen” value under setting [5] came out at 177.8 Å².

`CC(=O)c1ccc2c(c1)[C@H](NC(=O)c1ccc(F)cc1)[C@@H](O)C(C)(C)O2` [Carabersat]: the “collision cross section in nitrogen” value came to 184.1 Å² under setting [1], 183.9 Å² under setting [2], 194.4 Å² under setting [4] and 186 Å² under setting [5].

Regarding `NC(=O)N1c2ccccc2C=Cc2ccccc21` [Carbamazepine], the “collision cross section in nitrogen” value runs as follows: under setting [1], 150.5 Å²; under setting [2], 150.1 Å²; under setting [4], 161.1 Å².

Turning to `c1ccc2c(c1)[nH]c1ccccc12` [Carbazole], the “collision cross section in nitrogen” value by setting is: under setting [3], 130.2 Å²; under setting [5], 132.9 Å².

With `COC(=O)Nc1nc2ccccc2[nH]1` [Carbendazim], the “collision cross section in nitrogen” value by setting is: under setting [1], 138.7 Å²; under setting [2], 139 Å².

On to `CCNC(=O)[C@@H](C)OC(=O)Nc1ccccc1` [Carbetamide], for which the “collision cross section in nitrogen” value under setting [4] was 167.4 Å².

In the case of `CCOC(=O)n1ccn(C)c1=S` [Carbimazole], under setting [4], the “collision cross section in nitrogen” value stood at 148 Å².

On to `CNC(=O)Oc1cccc2c1OC(C)(C)C2` [Carbofuran], for which, under setting [4], the “collision cross section in nitrogen” value is on record as 157.8 Å².

Turning to `N#CC(C#N)=NNc1cccc(Cl)c1` [Carbonyl cyanide chlorophenylhydrazone], the “collision cross section in nitrogen” value under setting [2] is 142.8 Å².

With `CCCCN(CCCC)SN(C)C(=O)Oc1cccc2c1OC(C)(C)C2` [Carbosulfan], the “collision cross section in nitrogen” value worked out at 188.3 Å² under setting [1], 188.3 Å² under setting [2] and 204.7 Å² under setting [4].

Regarding `CC1=C(C(=O)Nc2ccccc2)SCCO1` [Carboxin], the “collision cross section in nitrogen” value stood at 151.4 Å² under setting [1], 153 Å² under setting [2], 165.7 Å² under setting [4] and 155.8 Å² under setting [5].

For the compound `CCCCNC(=O)NS(=O)(=O)c1ccc(N)cc1` [Carbutamide], the “collision cross section in nitrogen” value turned out to be 175.6 Å² under setting [4] and 165 Å² under setting [5].

For `CCOC(=O)C(Cl)Cc1cc(-n2nc(C)n(C(F)F)c2=O)c(F)cc1Cl` (stereo not drawn) [Carfentrazone-ethyl], the “collision cross section in nitrogen” value under setting [2] is given as 180.3 Å² and the “collision cross section in nitrogen” value under setting [4] was 187.9 Å².

In the case of `CC(C)c1ccc(C(=O)N=C(N)N)cc1S(C)(=O)=O` [Cariporide mesylate], the “collision cross section in nitrogen” value by setting is: under setting [1], 175.1 Å²; under setting [2], 173.6 Å²; under setting [4], 178.2 Å²; under setting [5], 169.3 Å².

For the compound `CCCC(C)(COC(N)=O)COC(=O)NC(C)C` (stereo not drawn) [Carisoprodol], the “collision cross section in nitrogen” value under setting [4] was 172.2 Å².

For the compound `Cc1c(C(=O)O)c(O)cc2c1C(=O)c1c(O)c([C@@H]3O[C@H](CO)[C@@H](O)[C@H](O)[C@H]3O)c(O)c(O)c1C2=O` [Carminic acid], the “collision cross section in nitrogen” value came out at 209.1 Å² under setting [2], 217.8 Å² under setting [4] and 208.9 Å² under setting [5].

As for `CC1C(C)(C)C2=C(C(=O)CCC2)C1(C)C` (stereo not drawn) [Cashmeran], the “collision cross section in nitrogen” value under setting [5] was 154.6 Å².
